Assay results published in US20130129840A1, “COMBINATION THERAPY USING A RUTHENIUM COMPLEX” (Niiki Pharma Inc., priority 2010, published 2013).

Tests used:
colon cancer cells = conditions: preclinical studies, Kapitza et al. 2005; cited from earlier work
cancer = conditions: cited from earlier work
[1] = test system: Hep3B liver carcinoma xenograft; experiment: Hep3B liver carcinoma xenograft assay, survival; type: in vivo, CB17 SCID mice; conditions: SCID mice, test drug 30 mg/kg i.v. day 1 and 8, sorafenib 25 mg/kg p.o. days 1-5 and 8-12, control 33 days
Method: Xenograft Assay: CB17 severe combined immunodeficient (SCID) female mice were used for all in vivo studies. The mice received food and water ad libitum. For tumor application, logarithmically growing Hep3B cells in cell culture were collected by trypsinization and washed once in serum-free culture medium. The cells were then pelleted and resuspended in culture medium to a final cell count of 2×10^7/ml. 50 μl of the cell suspension was injected s.c. in the right flank of each mouse. Treatment started when all animals in the study had established tumors of a size of about 3×3 mm.
Sorafenib (LC Laboratories, Woburn, Mass., USA) was dissolved in DMSO (50 mg/ml), further diluted in Cremophor EL/95% ethanol (50:50; Sigma), which was followed by a 1:4 dilution in water. 100 μl sorafenib was administered p.o. once daily at 5 consecutive days for two weeks at a dose of 25 mg/kg body weight (days 1-5 and days 8-12).
Tumor size was calculated using the equation (l×w^2)/2, where l and w refer to the larger and smaller dimensions, respectively, of the tumor. 4 mice were used in each group for each data point.

| Structure (SMILES) | inducing apoptosis in colon cancer cells (colon cancer cells) | anti-cancer activities in a phase I clinical trial (cancer) | increase in life span / mean survival vs. control [1] | mean survival [1] |
| --- | --- | --- | --- | --- |
| [Cl-].[Cl-].[Cl-].[Cl-].[Ru+3].c1ccc2[nH][nH+]cc2c1.c1ccc2[nH]ncc2c1.c1ccc2[nH]ncc2c1 [KP1019, indazolium trans-[tetrachlorobis(1H-indazole)ruthenate (III)]] | effective in inducing apoptosis | some anti-cancer activities | – | – |
| [Cl][Ru-]([Cl])([Cl])[Cl].[Na+].c1ccc2[nH]ncc2c1.c1ccc2[nH]ncc2c1 [Test drug] | effective in inducing apoptosis | – | 2.4 fold | 80 days |
| CNC(=O)c1cc(Oc2ccc(NC(=O)Nc3ccc(Cl)c(C(F)(F)F)c3)cc2)ccn1 [sorafenib, reference compound] | – | – | 1.9 fold | 60 days |
